From PubChem BioAssay AID192 (DTP/NCI, 2004)
Where “and” joins values, the source holds several entries; their conditions need not be identical. Equal values may be shown once. Toxic doses and inconclusive results are not listed.

Tested on: BDF1 mice, B16 melanoma ip, median survival T/C
Assay: NCI In Vivo Anticancer Drug Screen. Data for tumor model B16 Melanoma (intraperitoneal) in B6D2F1 (BDF1) mice
Conditions: endpoint: median survival time, higher = longer survival
Procedure, shortened: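 Values are ratios of treated (T) to vehicle-control (C) measurements of survival or tumor size in tumor-bearing mice.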

[1] = dose: 100.0 mg/kg/injection, schedule: Q01DX009 (ip), vehicle: saline with Tween-80
[2] = dose: 12.5 mg/kg/injection, schedule: Q01DX009 (ip), vehicle: saline
[3] = dose: 50.0 mg/kg/injection, schedule: Q01DX009 (ip), vehicle: saline
[4] = dose: 100.0 mg/kg/injection, schedule: Q01DX009 (ip), vehicle: saline
[5] = dose: 12.5 mg/kg/injection, schedule: Q01DX009 (ip), vehicle: saline with Tween-80
[6] = dose: 25.0 mg/kg/injection, schedule: Q01DX009 (ip), vehicle: saline with Tween-80
[7] = dose: 50.0 mg/kg/injection, schedule: Q01DX009 (ip), vehicle: saline with Tween-80
[8] = dose: 100.0 mg/kg/injection, schedule: Q01DX009 (ip), vehicle: Klucel (hydroxypropylcellulose) (HPC)
[9] = dose: 200.0 mg/kg/injection, schedule: Q01DX009 (ip), vehicle: Klucel (hydroxypropylcellulose) (HPC)
[10] = dose: 12.5 mg/kg/injection, schedule: Q01DX009 (ip), vehicle: Klucel (hydroxypropylcellulose) (HPC)
[11] = dose: 25.0 mg/kg/injection, schedule: Q01DX009 (ip), vehicle: Klucel (hydroxypropylcellulose) (HPC)
[12] = dose: 50.0 mg/kg/injection, schedule: Q01DX009 (ip), vehicle: Klucel (hydroxypropylcellulose) (HPC)
[13] = dose: 200.0 mg/kg/injection, schedule: Q01DX009 (ip), vehicle: saline with Tween-80

`CCC1CCCCC1=O` (configuration not stated) was tested, and the T/C (dose: 44.0 mg/kg/injection, schedule: Q01DX009 (ip), vehicle: saline with Tween-80) was 97 % of control, the T/C (dose: 67.0 mg/kg/injection, schedule: Q01DX009 (ip), vehicle: saline with Tween-80) was 95 % of control and the T/C [1] was 100 % of control. The T/C (dose: 150.0 mg/kg/injection, schedule: Q01DX009 (ip), vehicle: saline with Tween-80) was 102 % of control.
`N=C(N)Sc1ccccn1` was tested, and the T/C [2] was 95 % of control, the T/C (dose: 12.5 mg/kg/injection, schedule: Q01DX009 (ip), vehicle: suspension in saline) was 98 % of control and the T/C (dose: 25.0 mg/kg/injection, schedule: Q01DX009 (ip), vehicle: saline) was 97 % of control. The T/C (dose: 25.0 mg/kg/injection, schedule: Q01DX009 (ip), vehicle: suspension in saline) was 100 % of control, the T/C [3] was 100 % of control and the T/C (dose: 50.0 mg/kg/injection, schedule: Q01DX009 (ip), vehicle: suspension in saline) was 92 % of control. For the same molecule, the T/C [4] was 98 % of control and the T/C (dose: 100.0 mg/kg/injection, schedule: Q01DX009 (ip), vehicle: suspension in saline) was 92 % of control.
In the case of `Cc1ccc(S(=O)(=O)NC(=S)S)cc1`, the T/C [5] is reported as 88 % of control, the T/C [6] is reported as 98 % of control and 122 % of control and the T/C [7] is reported as 97 % of control. For the same molecule, the T/C [1] was 92 % of control and 122 % of control.
In the case of `CC(=O)OC1OC(=O)C(C)(C(C)=O)C1C` (configuration not stated), the T/C (dose: 2.5 mg/kg/injection, schedule: Q01DX009 (ip), vehicle: distilled water + alcohol) is reported as 104 % of control, the T/C (dose: 5.0 mg/kg/injection, schedule: Q01DX009 (ip), vehicle: distilled water + alcohol) is reported as 102 % of control and the T/C (dose: 10.0 mg/kg/injection, schedule: Q01DX009 (ip), vehicle: distilled water + alcohol) is reported as 104 % of control.
`O=C(CC(=Nc1ccccc1)c1ccccc1)c1ccccc1.O=C(CC(=Nc1ccccc1)c1ccccc1)c1ccccc1.[Cu]` was tested, and the T/C (dose: 6.25 mg/kg/injection, schedule: Q04DX003 (ip), vehicle: saline with Tween-80) was 93 % of control, the T/C (dose: 12.5 mg/kg/injection, schedule: Q04DX003 (ip), vehicle: saline with Tween-80) was 86 % of control and the T/C (dose: 25.0 mg/kg/injection, schedule: Q04DX003 (ip), vehicle: saline with Tween-80) was 91 % of control.
`CCC/C=C/C(C)C` was tested, and the T/C [8] was 95 % of control, the T/C [9] was 88 % of control and the T/C (dose: 400.0 mg/kg/injection, schedule: Q01DX009 (ip), vehicle: Klucel (hydroxypropylcellulose) (HPC)) was 95 % of control.
With `CC[C@@]1(O)C(=O)OCc2c1cc1n(c2=O)Cc2cc3cc(OC)ccc3nc2-1` the T/C (dose: 0.39 mg/kg/injection, schedule: Q01DX009 (ip), vehicle: other) was 157 % of control and the T/C (dose: 0.79 mg/kg/injection, schedule: Q01DX009 (ip), vehicle: other) was 174 % of control.
`C[n+]1ccc(Nc2ccc(NC(=O)c3ccc(Nc4cc[n+](C)c5ccc(N)cc45)cc3N)cc2)cc1` was tested, and the T/C (dose: 1.0 mg/kg/injection, schedule: Q01DX009 (ip), vehicle: saline with Tween-80) was 98 % of control, the T/C (dose: 1.0 mg/kg/injection, schedule: Q02DX009 (ip), vehicle: Klucel (hydroxypropylcellulose) (HPC)) was 103 % of control and 105 % of control and the T/C (dose: 2.0 mg/kg/injection, schedule: Q01DX009 (ip), vehicle: saline with Tween-80) was 105 % of control. The T/C (dose: 2.0 mg/kg/injection, schedule: Q02DX009 (ip), vehicle: Klucel (hydroxypropylcellulose) (HPC)) was 109 % of control and 113 % of control, the T/C (dose: 4.0 mg/kg/injection, schedule: Q01DX009 (ip), vehicle: saline with Tween-80) was 109 % of control and the T/C (dose: 4.0 mg/kg/injection, schedule: Q02DX009 (ip), vehicle: Klucel (hydroxypropylcellulose) (HPC)) was 101 % of control and 106 % of control. The T/C (dose: 6.25 mg/kg/injection, schedule: Q01DX009 (ip), vehicle: Klucel (hydroxypropylcellulose) (HPC)) was 109 % of control, the T/C (dose: 6.25 mg/kg/injection, schedule: Q01DX009 (ip), vehicle: saline) was 104 % of control and the T/C (dose: 8.0 mg/kg/injection, schedule: Q01DX009 (ip), vehicle: saline with Tween-80) was 106 % of control. For the same molecule, the T/C (dose: 8.0 mg/kg/injection, schedule: Q02DX009 (ip), vehicle: Klucel (hydroxypropylcellulose) (HPC)) was 108 % of control and 110 % of control, the T/C [10] was 105 % of control and the T/C [2] was 102 % of control. The T/C (dose: 16.0 mg/kg/injection, schedule: Q01DX009 (ip), vehicle: saline with Tween-80) was 106 % of control, the T/C (dose: 16.0 mg/kg/injection, schedule: Q02DX009 (ip), vehicle: Klucel (hydroxypropylcellulose) (HPC)) was 109 % of control and 113 % of control and the T/C [11] was 89 % of control. The T/C (dose: 32.0 mg/kg/injection, schedule: Q02DX009 (ip), vehicle: Klucel (hydroxypropylcellulose) (HPC)) was 92 % of control and 97 % of control.
With `Cc1ccc(NC(=O)Nc2ccc(Cl)c(Cl)c2)cc1Cl` the T/C [11] was 96 % of control and the T/C [12] was 105 % of control.
`O=C(NC1CCCCC1)OCc1c(COC(=O)NC2CCCCC2)c(-c2ccc(Cl)c(Cl)c2)n2c1CCC2` was tested, and the T/C [5] was 169 % of control, the T/C [6] was 214 % of control and the T/C (dose: 25.0 mg/kg/injection, schedule: Q01DX009 (oral), vehicle: saline with Tween-80) was 107 % of control. For the same molecule, the T/C [7] was 290 % of control, the T/C (dose: 50.0 mg/kg/injection, schedule: Q01DX009 (oral), vehicle: saline with Tween-80) was 102 % of control and the T/C [1] was 304 % of control. The T/C (dose: 100.0 mg/kg/injection, schedule: Q01DX009 (oral), vehicle: saline with Tween-80) was 106 % of control, the T/C [13] was 153 % of control and the T/C (dose: 200.0 mg/kg/injection, schedule: Q01DX009 (oral), vehicle: saline with Tween-80) was 107 % of control. For the same molecule, the T/C (dose: 400.0 mg/kg/injection, schedule: Q01DX009 (ip), vehicle: saline with Tween-80) was 91 % of control, the T/C (dose: 400.0 mg/kg/injection, schedule: Q01DX009 (oral), vehicle: saline with Tween-80) was 106 % of control and the T/C (dose: 800.0 mg/kg/injection, schedule: Q01DX009 (oral), vehicle: saline with Tween-80) was 102 % of control.
With `Cc1cc([N+](=O)[O-])cc(C)c1OC(=O)c1ccc(N=C(N)N)cc1` the T/C [10] was 98 % of control, the T/C [11] was 97 % of control and the T/C [12] was 90 % of control.
`CCCC[N+](CCCC)(CCCC)CCCC.Cc1ccc([SH2+])c([SH2+])c1.Cc1ccc([SH2+])c([SH2+])c1.[Fe+3]` was tested, and the T/C [11] was 93 % of control, the T/C [6] was 97 % of control and the T/C [12] was 99 % of control. The T/C [7] was 98 % of control, the T/C [8] was 93 % of control and the T/C [1] was 103 % of control. For the same molecule, the T/C [9] was 93 % of control and the T/C [13] was 98 % of control.
For `COc1ccc2c(c1OC(C)=O)-c1cc(OC(C)=O)cc3c1C(C2)N(C(=O)CN(CCCl)CCCl)CC3` (configuration not stated), the T/C (dose: 1.56 mg/kg/injection, schedule: Q04DX003 (ip), vehicle: DMSO) was 92 % of control, the T/C (dose: 3.13 mg/kg/injection, schedule: Q04DX003 (ip), vehicle: DMSO) was 108 % of control and the T/C (dose: 6.25 mg/kg/injection, schedule: Q04DX003 (ip), vehicle: DMSO) was 115 % of control. For the same molecule, the T/C (dose: 25.0 mg/kg/injection, schedule: Q04DX003 (ip), vehicle: DMSO) was 165 % of control.
`CN1C(=O)NC(c2ccc(Cl)cc2)(c2ccc(Cl)cc2)C1=O` was tested, and the T/C (dose: 0.78 mg/kg/injection, schedule: Q01DX009 (ip), vehicle: water) was 100 % of control, the T/C (dose: 1.56 mg/kg/injection, schedule: Q01DX009 (ip), vehicle: water) was 95 % of control and the T/C (dose: 3.12 mg/kg/injection, schedule: Q01DX009 (ip), vehicle: water) was 100 % of control. The T/C (dose: 6.25 mg/kg/injection, schedule: Q01DX009 (ip), vehicle: water) was 100 % of control and 112 % of control, the T/C (dose: 12.5 mg/kg/injection, schedule: Q01DX009 (ip), vehicle: distilled water + Tween-80) was 100 % of control and the T/C (dose: 12.5 mg/kg/injection, schedule: Q01DX009 (ip), vehicle: water) was 99 % of control and 102 % of control. The T/C (dose: 25.0 mg/kg/injection, schedule: Q01DX009 (ip), vehicle: distilled water + Tween-80) was 105 % of control, the T/C (dose: 25.0 mg/kg/injection, schedule: Q01DX009 (ip), vehicle: water) was 101 % of control and 105 % of control and the T/C (dose: 50.0 mg/kg/injection, schedule: Q01DX009 (ip), vehicle: distilled water + Tween-80) was 99 % of control. The T/C (dose: 100.0 mg/kg/injection, schedule: Q01DX009 (ip), vehicle: distilled water + Tween-80) was 116 % of control and the T/C (dose: 200.0 mg/kg/injection, schedule: Q01DX009 (ip), vehicle: distilled water + Tween-80) was 98 % of control.
`ClCC[N+]12CC[N+](CCCl)(CC1)C2` (tested in a mixture with another compound) was tested, and the T/C [3] was 120 % of control, the T/C [4] was 115 % of control and the T/C (dose: 200.0 mg/kg/injection, schedule: Q01DX009 (ip), vehicle: saline) was 121 % of control.
For `O=C(Nc1cccc(C(F)(F)F)c1)c1cc(Br)cc(Br)c1O`, the T/C [10] was 108 % of control, the T/C [11] was 106 % of control and the T/C [12] was 110 % of control.
`CCCCCCCCCCCCCCCCNS(=O)(=O)c1ccc(NN)cc1` was tested, and the T/C [10] was 93 % of control, the T/C [11] was 96 % of control and the T/C [12] was 89 % of control and 90 % of control.
